Experiment [1] has as its target T1, PI3K-α (PIK3CA) wild-type (WT), p110α/p85α complex (Homo sapiens, UniProt P42336).
T1 construct: Recombinant, catalytically active human full length PIK3KA Wild-type and H1047R mutant; 6×His (N); purchased EMD Millipore Sigma 14-602M
As to the kind of experiment: PI3K-alpha kinase (PIK3CA) biochemical activity, ADP-Glo, wild-type. The following applies: Soy PI lipid substrate. Put shortly: (§1)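 ADP formation measured by ADP-Glo luminescence after reaction at 27 °C to about 10% ATP turnover, using 20 uM ATP, 50 uM PIP2diC8 or soy PI lipid, HEPES pH 7.4 with MgCl2. Enzyme (1-5 nM WT or H1047R p110α/p85α) and compound preincubated 1 h first; 10-point 1:3 curves fitted four-parameter for IC50.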

Experiment [2] concerns the target T2, PI3K-α (PIK3CA) H1047R mutant, p110α/p85α complex (Homo sapiens, UniProt P42336, H1047R).
T2 construct: Recombinant, catalytically active human full length PIK3KA Wild-type and H1047R mutant; 6×His (N); purchased EMD Millipore Sigma 14-792M
As to the kind of experiment: PI3K-alpha kinase (PIK3CA) biochemical activity, ADP-Glo, H1047R mutant. The following applies: Soy PI lipid substrate. The procedure, abridged: as §1

Experiment [3] concerns the target PI3K-α (PIK3CA) in MDA-MB-453 cells (Homo sapiens, UniProt P42336). As to the kind of experiment: PI3K-alpha kinase (PIK3CA) in vitro cell based assay, MDA-MB-453 cells, SureFire Ultra AlphaLisa. To be noted: read-out: PI3K-α (PIK3CA) in vitro cell based assay IC50. On the procedure:
PI3K-Alpha Kinase (PIK3CA) Activity In Vitro Cell Based Assay and Determining IC50 Values for Inhibitors
The MDA-MB-453 (ATCC-HTB-131) cell line was obtained from the American Type Culture Collection (Manassas, VA). Cells were maintained in Dulbecco's Modified Eagle Media (DMEM, Gibco 11965-092) supplemented with 10% Fetal Bovine Serum, heat inactivated (FBS HI, Gibco 10082-147), 1× non-essential amino acids (NEAA, Gibco 11140-050), and 1 mM sodium pyruvate (Gibco 11360-070). Cultures were maintained in a humidified incubator at 37° C. under 5% CO2/95% air.
For compound testing in 0% FBS, MDA-MB-453 cells were seeded at a density of 1.5×10^4 cells per well in white 384-well plates in 20 μl of Minimum Essential Media (MEM) assay media with 1×NEAA, 1 mM sodium pyruvate, and 1 μg/mL human insulin (Sigma I9278). Compounds dissolved in 10 mM stock solutions in DMSO were serially diluted 1:3 in DMSO to generate a 10-point dilution series and plated using an acoustic liquid handler system (Echo 550 Series Liquid Handler, Labcyte). A 5× intermediate compound dilution plate in MEM with 1×NEAA and 1 mM sodium pyruvate (150 μM starting compound concentration in 1.5% DMSO) was then prepared. Five μl of the intermediate serially diluted compounds were added to the cell plate to final concentrations ranging from […] in 0.3% DMSO. 0.3% DMSO alone was used to establish the maximum (MAX) signal and GDC-0032 at a final concentration of 1 μM was used as a reference compound for the minimum (MIN) signal. After 3 hours treatment, the medium was removed, and the cells lysed in 10 μL of 1× SureFire Lysis buffer with shaking for 10 minutes at room temperature. The Acceptor Mix (Reaction Buffer 1+Reaction Buffer 2+Activation Buffer+SureFire Ultra Acceptor Beads) was prepared by diluting Activation buffer 25-fold in combined Reaction Buffer 1 and Reaction Buffer 2. The Acceptor beads were diluted 50-fold in the combined Reaction Buffers. Five μL of Acceptor Mix was added to each well, the plate was sealed and covered with foil and incubated for 1 hour at room temperature. The Donor Mix (dilution buffer+SureFire Ultra Donor Beads) was prepared by diluting Donor Beads 50-fold in dilution buffer. Five μL of the Donor Mix was added to each well and the plate sealed and covered with foil and incubated for 1 hour at room temperature in the dark. The plates were read on a Neo2 plate reader instrument from Biotek using standard AlphaLisa settings. Compounds were tested in duplicate and the average % inhibition at each compound concentration was used to generate a single dose response curve. The data were processed using the Genedata-Screener tool. Relative IC50 values were determined using luminescence units by calculating percent inhibition with respect to the in-plate “MIN” (GDC-0032 reference control) and “MAX” (DMSO) controls. The data was analyzed using a 4-parameter nonlinear logistic equation (four-parameter logistic concentration-response curve): Y=bottom+[(top−bottom)/1+(X/IC50)slope] where Y=% inhibition, X=concentration of inhibitor, bottom=minimum value of y attained by curve-fit, top=maximum value of y attained by curve-fit and slope=steepness of curve at the IC50. % Inhibition=[(signal at X−median Min)/(median Max−median Min)]×100 IC50: concentration of compound that reduces a given response (ligand binding, enzyme response) by 50%. Relative IC50: concentration giving half the compound's maximum response.
In general terms: Bead proximity is the source of the signal in Alpha formats.

Each structure is given as a SMILES string.

T2 sequence (P42336 whole entry H1047R): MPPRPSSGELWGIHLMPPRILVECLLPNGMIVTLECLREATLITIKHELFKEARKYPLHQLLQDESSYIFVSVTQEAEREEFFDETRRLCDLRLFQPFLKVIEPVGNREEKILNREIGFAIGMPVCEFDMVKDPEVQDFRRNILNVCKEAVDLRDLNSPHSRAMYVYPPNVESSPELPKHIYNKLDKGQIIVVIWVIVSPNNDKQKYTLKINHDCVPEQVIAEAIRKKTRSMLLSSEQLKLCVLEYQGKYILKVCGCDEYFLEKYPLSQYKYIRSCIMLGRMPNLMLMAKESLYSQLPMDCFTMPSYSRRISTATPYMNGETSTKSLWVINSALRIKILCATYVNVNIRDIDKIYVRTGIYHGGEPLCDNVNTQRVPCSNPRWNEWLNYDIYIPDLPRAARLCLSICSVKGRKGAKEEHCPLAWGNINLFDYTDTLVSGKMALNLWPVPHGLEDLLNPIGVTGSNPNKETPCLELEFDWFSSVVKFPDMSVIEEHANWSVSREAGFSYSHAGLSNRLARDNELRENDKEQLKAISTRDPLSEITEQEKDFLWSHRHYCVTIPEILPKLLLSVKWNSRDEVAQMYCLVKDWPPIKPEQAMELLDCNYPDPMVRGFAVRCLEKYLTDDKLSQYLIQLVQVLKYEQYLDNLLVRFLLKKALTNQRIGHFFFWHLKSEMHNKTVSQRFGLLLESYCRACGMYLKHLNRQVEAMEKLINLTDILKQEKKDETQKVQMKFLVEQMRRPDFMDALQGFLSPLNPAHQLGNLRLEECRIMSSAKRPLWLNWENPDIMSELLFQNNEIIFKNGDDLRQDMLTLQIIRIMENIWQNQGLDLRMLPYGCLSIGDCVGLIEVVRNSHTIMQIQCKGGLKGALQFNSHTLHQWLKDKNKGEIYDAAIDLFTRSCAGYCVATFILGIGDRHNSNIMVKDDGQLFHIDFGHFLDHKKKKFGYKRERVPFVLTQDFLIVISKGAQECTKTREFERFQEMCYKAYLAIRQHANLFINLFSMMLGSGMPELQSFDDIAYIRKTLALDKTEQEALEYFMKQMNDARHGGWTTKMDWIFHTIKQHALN
T2 sequence (P27986 whole entry partner): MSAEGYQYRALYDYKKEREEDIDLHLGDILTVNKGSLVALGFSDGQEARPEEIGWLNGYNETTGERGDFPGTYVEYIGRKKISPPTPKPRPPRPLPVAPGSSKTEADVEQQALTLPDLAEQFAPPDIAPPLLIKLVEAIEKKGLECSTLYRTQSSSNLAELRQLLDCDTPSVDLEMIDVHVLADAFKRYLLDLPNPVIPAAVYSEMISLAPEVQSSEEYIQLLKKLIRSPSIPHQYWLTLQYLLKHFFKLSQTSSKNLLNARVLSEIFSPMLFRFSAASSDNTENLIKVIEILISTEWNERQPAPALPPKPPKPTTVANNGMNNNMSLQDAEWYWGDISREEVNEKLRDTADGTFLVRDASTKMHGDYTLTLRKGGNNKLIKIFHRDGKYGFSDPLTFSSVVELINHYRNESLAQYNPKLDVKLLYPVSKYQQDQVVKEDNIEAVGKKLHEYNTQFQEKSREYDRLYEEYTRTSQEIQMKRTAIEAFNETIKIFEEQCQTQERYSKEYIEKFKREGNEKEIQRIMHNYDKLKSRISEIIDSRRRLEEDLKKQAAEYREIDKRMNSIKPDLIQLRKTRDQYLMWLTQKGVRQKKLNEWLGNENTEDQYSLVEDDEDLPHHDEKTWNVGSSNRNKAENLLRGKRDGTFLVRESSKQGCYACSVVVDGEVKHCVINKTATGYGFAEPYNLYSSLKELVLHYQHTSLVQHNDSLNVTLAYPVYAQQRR
PI3K-α (PIK3CA) in MDA-MB-453 cells, sequence (P27986 2-724): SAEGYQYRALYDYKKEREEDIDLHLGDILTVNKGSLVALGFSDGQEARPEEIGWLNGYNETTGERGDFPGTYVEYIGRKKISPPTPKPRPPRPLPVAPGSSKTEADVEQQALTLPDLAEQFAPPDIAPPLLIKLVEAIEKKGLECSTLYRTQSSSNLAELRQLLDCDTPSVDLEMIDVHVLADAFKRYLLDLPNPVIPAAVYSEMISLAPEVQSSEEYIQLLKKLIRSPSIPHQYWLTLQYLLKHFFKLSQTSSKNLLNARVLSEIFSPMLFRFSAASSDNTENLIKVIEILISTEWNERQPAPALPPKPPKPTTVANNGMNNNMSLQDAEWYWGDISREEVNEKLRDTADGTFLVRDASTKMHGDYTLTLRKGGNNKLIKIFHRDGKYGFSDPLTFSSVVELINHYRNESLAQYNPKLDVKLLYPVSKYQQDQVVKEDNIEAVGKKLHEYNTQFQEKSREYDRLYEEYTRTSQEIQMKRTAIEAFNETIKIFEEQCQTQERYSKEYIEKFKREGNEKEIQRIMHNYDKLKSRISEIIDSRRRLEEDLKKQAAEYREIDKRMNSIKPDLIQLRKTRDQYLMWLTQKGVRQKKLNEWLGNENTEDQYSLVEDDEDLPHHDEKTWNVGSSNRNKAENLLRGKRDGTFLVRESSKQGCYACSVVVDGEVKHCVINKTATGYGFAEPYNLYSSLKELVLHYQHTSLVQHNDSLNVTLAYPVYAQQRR
PI3K-α (PIK3CA) in MDA-MB-453 cells, sequence (P42336 whole entry): as the sequence (P42336 whole entry H1047R) above, with R1047H counted along it

For orientation: IC50 means the concentration needed to halve the response being measured. As to `Cc1cc(C(C)Nc2ccccc2C(=O)O)c2oc(-n3ncc4ccccc43)cc(=O)c2c1` (single isomer, unassigned) [Example 49, 2-[1-(2-Indazol-1-yl-6-methyl-4-oxo-chromen-8-yl)ethylamino]benzoic acid], the IC50 in experiment [1] is 0.5 to 1 µM; in experiment [2] it was less than 0.5 µM; in experiment [3], less than 0.05 µM.

Turning to `Cc1cc(C(C)Nc2ccccc2C(=O)O)c2oc(-c3ccc4nn(C)cc4c3)cc(=O)c2c1` (single isomer, unassigned) [Example 8, 2-[1-[6-Methyl-2-(2-methylindazol-5-yl)-4-oxo-chromen-8-yl]ethylamino]benzoic acid], the IC50 was 0.5 to 1 µM in experiment [1], less than 0.5 µM in experiment [2] and less than 0.05 µM in experiment [3].

On to `Cc1cc(C(C)Nc2ccccc2C(=O)O)c2oc(-c3ccc4cnn(C)c4c3)cc(=O)c2c1` (single isomer, unassigned) [Example 25, 2-[1-[6-Methyl-2-(1-methylindazol-6-yl)-4-oxo-chromen-8-yl]ethylamino]benzoic acid], for which the results for the IC50 in experiment [1], in experiment [2] and in experiment [3] were less than 0.5 µM, less than 0.5 µM and 0.05 to 0.1 µM, respectively.

Turning to `Cc1cc(C(C)Nc2ccccc2C(=O)O)c2oc(-c3ccc4cc[nH]c4c3)c(C)c(=O)c2c1` (single isomer, unassigned) [Example 90, 2-[1-[2-(1H-Indol-6-yl)-3,6-dimethyl-4-oxo-chromen-8-yl]ethylamino]benzoic acid], the IC50 was 1 to 5 µM in experiment [1], less than 0.5 µM in experiment [2] and less than 0.05 µM in experiment [3].

`Cc1cc([C@@H](C)Nc2ccc(C)nc2C(=O)O)c2oc(-c3ccc4nc(C)sc4n3)c(C)c(=O)c2c1` [Example 265, 3-[[(1R)-1-[3,6-Dimethyl-2-(2-methylthiazolo[5,4-b]pyridin-5-yl)-4-oxo-chromen-8-yl]ethyl]amino]-6-methyl-pyridine-2-carboxylic acid]: the IC50 in experiment [1] is 1 to 5 µM; in experiment [2], less than 0.5 µM; in experiment [3] it was 0.05 to 0.1 µM.

With `Cc1cc(C(C)Nc2cccc(F)c2C(=O)O)c2oc(-c3ccc4cnn(C)c4c3)cc(=O)c2c1` (single isomer, unassigned) [Example 222, 2-fluoro-6-[1-[6-methyl-2-(1-methylindazol-6-yl)-4-oxo-chromen-8-yl]ethylamino]benzoic acid], the IC50 was 0.5 to 1 µM in experiment [1], less than 0.5 µM in experiment [2] and 0.1 to 0.5 µM in experiment [3].

For the molecule `Cc1cc(C(C)Nc2cccc(F)c2C(=O)O)c2oc(-c3ccc4nn(C)cc4c3)cc(=O)c2c1` (single isomer, unassigned) [Example 171, 2-Fluoro-6-[1-[6-methyl-2-(2-methylindazol-5-yl)-4-oxo-chromen-8-yl]ethylamino]benzoic acid], the IC50 in experiment [1] is 1 to 5 µM; in experiment [2] it was 1 to 5 µM; in experiment [3] it was more than 0.5 µM.

In the case of `Cc1cc(C(C)Nc2ccccc2C(=O)O)c2oc(-c3ccc4nc(C)sc4n3)cc(=O)c2c1` (single isomer, unassigned) [Example 139, 2-[1-[6-Methyl-2-(2-methylthiazolo[5,4-b]pyridin-5-yl)-4-oxo-chromen-8-yl]ethylamino]benzoic acid], the IC50 in experiment [1] was 1 to 5 µM; in experiment [2] it was less than 0.5 µM; in experiment [3], less than 0.05 µM.

`Cc1cc(C(C)Nc2ccccc2C(=O)O)c2oc(-c3ccn4nccc4c3)cc(=O)c2c1` (single isomer, unassigned) [Example 113, 2-[1-(6-Methyl-4-oxo-2-pyrazolo[1,5-a]pyridin-5-yl-chromen-8-yl)ethylamino]benzoic acid]: the IC50 was 0.5 to 1 µM in experiment [1], less than 0.5 µM in experiment [2] and less than 0.05 µM in experiment [3].

Turning to `Cc1cc(C(C)Nc2ccccc2C(=O)O)c2oc(-c3cc4cnccc4o3)cc(=O)c2c1` (single isomer, unassigned) [Example 22, 2-[1-(2-Furo[3,2-c]pyridin-2-yl-6-methyl-4-oxo-chromen-8-yl)ethylamino]benzoic acid], the IC50 was 0.5 to 1 µM in experiment [1], less than 0.5 µM in experiment [2] and less than 0.05 µM in experiment [3].

For `Cc1cc([C@@H](C)Nc2ccc(Br)nc2C(=O)O)c2oc(-c3ccc4nc(C)sc4n3)c(C)c(=O)c2c1` [Example 245, 6-Bromo-3-[[(1R)-1-[3,6-dimethyl-2-(2-methylthiazolo[5,4-b]pyridin-5-yl)-4-oxo-chromen-8-yl]ethyl]amino]pyridine-2-carboxylic acid], the IC50 in experiment [1] was less than 0.5 µM; in experiment [2], less than 0.5 µM; in experiment [3] it was less than 0.05 µM.

With `Cc1cc(C(C)Nc2ccccc2C(=O)O)c2oc(-c3ccc4nc(C)sc4c3)cc(=O)c2c1` (single isomer, unassigned) [Example 74, 2-[1-[6-Methyl-2-(2-methyl-1,3-benzothiazol-6-yl)-4-oxo-chromen-8-yl]ethylamino]benzoic acid], the IC50 in experiment [1] was 0.5 to 1 µM; in experiment [2], less than 0.5 µM; in experiment [3], less than 0.05 µM.

Regarding `Cc1cc([C@@H](C)Nc2cccnc2C(=O)O)c2oc(-c3ccc4nc(C)sc4n3)cc(=O)c2c1` [Example 239, 3-[[(1R)-1-[6-Methyl-2-(2-methylthiazolo[5,4-b]pyridin-5-yl)-4-oxo-chromen-8-yl]ethyl]amino]pyridine-2-carboxylic acid], the values for the IC50 in experiment [1], in experiment [2] and in experiment [3] were more than 10 µM, 1 to 5 µM and 0.1 to 0.5 µM, respectively.

With `Cc1cc(C(C)Nc2ccc(Cl)nc2C(=O)O)c2oc(-c3ccc4cc[nH]c4n3)cc(=O)c2c1` (single isomer, unassigned) [Example 215, 6-Chloro-3-[1-[6-methyl-4-oxo-2-(1H-pyrrolo[2,3-b]pyridin-6-yl)chromen-8-yl]ethylamino]pyridine-2-carboxylic acid], the figures for the IC50 in experiment [1], in experiment [2] and in experiment [3] were 0.5 to 1 µM, less than 0.5 µM and less than 0.05 µM, respectively.

In the case of `CC(Nc1ccccc1C(=O)O)c1cc(F)cc2c(=O)cc(-c3ccc4nn(C)cc4c3)oc12` (single isomer, unassigned) [Example 156, 2-[1-[6-Fluoro-2-(2-methylindazol-5-yl)-4-oxo-chromen-8-yl]ethylamino]benzoic acid], the results for the IC50 in experiment [1], in experiment [2] and in experiment [3] were 1 to 5 µM, 1 to 5 µM and more than 0.5 µM, respectively.

Take `Cc1cc([C@@H](C)Nc2ccc(C(F)(F)F)nc2C(=O)O)c2oc(-c3ccc4nn(C)cc4c3)c(C)c(=O)c2c1` [Example 236, 3-[[(1R)-1-[3,6-Dimethyl-2-(2-methylindazol-5-yl)-4-oxo-chromen-8-yl]ethyl]amino]-6-(trifluoromethyl)pyridine-2-carboxylic acid]: the IC50 was 0.5 to 1 µM in experiment [1], less than 0.5 µM in experiment [2] and less than 0.05 µM in experiment [3].

Turning to `Cc1cc(C(C)Nc2ccccc2C(=O)O)c2oc(-c3cc(Cl)c4nn(C)cc4c3)cc(=O)c2c1` (single isomer, unassigned) [Example 95, 2-[1-[2-(7-Chloro-2-methyl-indazol-5-yl)-6-methyl-4-oxo-chromen-8-yl]ethylamino]benzoic acid], the IC50 is 0.5 to 1 µM in experiment [1], less than 0.5 µM in experiment [2] and less than 0.05 µM in experiment [3].

For the origin of these results see patent publication US11878970B2, “Allosteric chromenone inhibitors of phosphoinositide 3-kinase (PI3K) for the treatment of disease” (Petra Pharma Corporation, priority 2021, dated 2024).
